Molecular target: T1, hGPR120 (Homo sapiens, UniProt Q5NUL3)
T1 construct: expressed in transfected cells; host or cells: CHO-K1
T1 sequence (Q5NUL3 1-361): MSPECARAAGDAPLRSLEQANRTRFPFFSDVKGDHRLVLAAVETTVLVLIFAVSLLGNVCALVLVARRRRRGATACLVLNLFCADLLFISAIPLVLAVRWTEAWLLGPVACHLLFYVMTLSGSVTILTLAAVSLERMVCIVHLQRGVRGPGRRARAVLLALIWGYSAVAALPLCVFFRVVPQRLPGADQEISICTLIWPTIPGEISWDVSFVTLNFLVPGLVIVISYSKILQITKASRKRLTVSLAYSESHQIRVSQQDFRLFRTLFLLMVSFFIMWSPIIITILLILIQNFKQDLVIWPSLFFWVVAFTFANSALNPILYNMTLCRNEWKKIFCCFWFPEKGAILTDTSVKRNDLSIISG
Experiment: Measurement of Activity of GPR120 Agonist (Cell-Based Assay), Calcium 5 dye fluorescence
Settings: CHO-K1 cells expressing Ga16 and hGPR120
In short: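 Gα16/hGPR120 CHO-K1; 18 h plating, 37 °C, 5% CO2; Calcium 5 dye load 1 h; agonist serial dilution, 0.5% DMSO final; fluor Ex485/Em525; response as % of 1% DMSO vehicle.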

EC50 [nM] | Compound
200 to 2000 | O=C(O)CC1CCN(c2c(F)cc(-c3csc(COCC4CC4)c3)cc2F)CC1 [Example 567, {1-[4-(5-cyclopropylmethoxymethyl-thiophen-3-yl)-2,6-difluoro-phenyl]-piperidin-4-yl}-acetic acid]
< 200 | CC(CCCCC(=O)O)c1c(F)cc(-c2cccnc2SC2CCCC2)cc1F (stereo not shown) [Example 238, 6-[4-(2-cyclopentylsulfanyl-pyridin-3-yl)-2,6-difluoro-phenyl]-heptanoic acid]
< 200 | CC(CCCC(=O)O)c1c(F)cc(-c2cccc3c2OC(F)(F)O3)cc1F (stereo not shown) [Example 171, 5-[4-(2,2-difluoro-benzo[1,3]dioxol-4-yl)-2,6-difluoro-phenyl]-hexanoic acid]
200 to 2000 | COCCOc1cc(C)nc(-c2cc(F)c(N3CCC(CC(=O)O)CC3)c(F)c2)n1 [Example 602, (1-{2,6-difluoro-4-[4-(2-methoxy-ethoxy)-6-methyl-pyrimidin-2-yl]-phenyl}-piperidin-4-yl)-acetic acid]
< 200 | O=C(O)CCCCc1ccc(-c2cccnc2OCC2CCC2)cc1F [Example 246, 5-[4-(2-cyclobutylmethoxy-pyridin-3-yl)-2-fluoro-phenyl]-pentanoic acid]
< 200 | CC(C)Sc1ncccc1-c1cc(F)c(C(C)CCCC(=O)O)c(F)c1 (stereo not shown) [Example 50, 5-[2,6-difluoro-4-(2-isopropylsulfanyl-3-pyridyl)-phenyl]hexanoic acid]
< 200 | O=C(O)CCCOc1c(F)cc(-n2ccc3ccc(Cl)cc32)cc1F [Example 463, 4-[4-(6-chloroindol-1-yl)-2,6-difluoro-phenoxy]butanoic acid]
< 200 | O=C(O)CCCCc1ccc(-c2cccc(SC3CCCC3)n2)cc1 [Example 28, 5-[4-(6-cyclopentylsulfanyl-2-pyridyl)phenyl]pentanoic acid]
2000 to 20000 | CC(C)Sc1ncccc1-c1cc(F)c(-n2cc(CCC(=O)O)cn2)c(F)c1 [Example 131, 3-[1-[2,6-difluoro-4-(2-isopropylsulfanyl-3-pyridyl)phenyl]pyrazol-4-yl]propanoic acid]
< 200 | CCCOc1cccc(-c2cc(F)c(OCCCC(=O)O)c(F)c2)c1 [Example 19, 4-(3,5-difluoro-3′-propoxy-biphenyl-4-yloxy)-butyric acid]
200 to 2000 | O=C(O)CC1CCN(c2c(F)cc(-c3cccc(OCC(F)(F)F)n3)cc2F)CC1 [Example 315, 2-[1-[2,6-difluoro-4-[6-(2,2,2-trifluoroethoxy)-2-pyridyl]phenyl]-4-piperidyl]acetic acid]
200 to 2000 | CC(C)Cc1ccnc(-c2cc(F)c(N3CCC(CC(=O)O)CC3)c(F)c2)n1 [Example 365, 2-[1-[2,6-difluoro-4-(4-isobutylpyrimidin-2-yl)phenyl]-4-piperidyl]acetic acid]
< 200 | O=C(O)CCCOc1c(F)cc(-c2cccc(OC3CCCC3)n2)cc1Cl [Example 400, 4-[2-chloro-4-(6-cyclopentyloxy-pyridin-2-yl)-6-fluoro-phenoxy]-butyric acid]
200 to 2000 | O=C(O)CCC1CCc2cc(-c3cccc(OC4CCCC4)n3)ccc2N1 (stereo not shown) [Example 11, 3-[6-(6-cyclopentyloxy-pyridin-2-yl)-1,2,3,4-tetrahydro-quinolin-2-yl]-propionic acid]
< 200 | O=C(O)CCCOc1c(F)cc(-n2ccc3cccc(Cl)c32)cc1F [Example 472, 4-[4-(7-chloroindol-1-yl)-2,6-difluoro-phenoxy]butanoic acid]
2000 to 20000 | O=C(O)CCCOc1c(F)cc(-c2ccc3cc[nH]c3c2)cc1F [Example 557, 4-[2,6-difluoro-4-(1H-indol-6-yl)-phenoxy]-butanoic acid]
200 to 2000 | COc1ccc(-c2cc(F)c(N3CCC(CC(=O)O)CC3)c(F)c2)nc1OCC1CC1 [Example 462, 2-[1-[4-[6-(cyclopropylmethoxy)-5-methoxy-2-pyridyl]-2,6-difluoro-phenyl]-4-piperidyl]acetic acid]
2000 to 20000 | COc1ccc(-c2ccc3c(c2)CCC(CCC(=O)O)O3)c2c1OC(C)(C)C2 (stereo not shown) [Example 273, 3-[6-(7-methoxy-2,2-dimethyl-2,3-dihydro-benzofuran-4-yl)-chroman-2-yl]-propionic acid]
< 200 | CC(CCCC(=O)O)c1c(F)cc(-c2cccnc2OC2CCOCC2)cc1F (stereo not shown) [Example 231, 5-{2,6-difluoro-4-[2-(tetrahydro-pyran-4-yloxy)-pyridin-3-yl]-phenyl}-hexanoic acid]
< 200 | Cc1cc(OCC2CC2)nc(-c2cc(F)c(N(C)CCCC(=O)O)c(F)c2)n1 [Example 489, 4-[4-[4-(cyclopropylmethoxy)-6-methyl-pyrimidin-2-yl]-2,6-difluoro-N-methyl-anilino]butanoic acid]
200 to 2000 | O=C(O)CC1CCN(c2c(F)cc(-c3cccc(NC4CCCC4)n3)cc2F)CC1 [Example 358, 2-[1-[4-[6-(cyclopentylamino)-2-pyridyl]-2,6-difluoro-phenyl]-4-piperidyl]acetic acid]
< 200 | CC(C)Sc1ncccc1-c1ccc2c(c1)CCC(CCC(=O)O)O2 (stereo not shown) [Example 7, 3-[6-(2-isopropylsulfanyl-pyridin-3-yl)-chroman-2-yl]-propionic acid]
< 200 | CCOc1ccnc(-c2cc(F)c(N3CCC(CC(=O)O)CC3)c(F)c2)n1 [Example 345, 2-[1-[4-(4-ethoxypyrimidin-2-yl)-2,6-difluoro-phenyl]-4-piperidyl]acetic acid]
< 200 | O=C(O)CC1CCN(c2c(F)cc(-c3cccnc3SC3CCCC3)cc2F)CC1 [Example 100, 2-[1-[4-(2-cyclopentylsulfanyl-3-pyridyl)-2,6-difluoro-phenyl]-4-piperidyl]acetic acid]
< 200 | O=C(O)CCCCc1c(F)cc(-c2cccnc2SC2CCCC2)cc1F [Example 36, 5-[4-(2-cyclopentylsulfanyl-3-pyridyl)-2,6-difluoro-phenyl]pentanoic acid]
< 200 | O=C(O)CCc1ccc2cc(-c3cccc(Oc4ccccc4)n3)ccc2c1 [Example 141, 3-[6-(6-phenoxy-pyridin-2-yl)-naphthalen-2-yl]-propanoic acid]
< 200 | CCCOc1ncccc1-c1cc(F)c(OCc2cc(O)no2)c(F)c1 [Example 74, 5-[[2,6-difluoro-4-(2-propoxy-3-pyridyl)phenoxy]methyl]isoxazol-3-ol]
< 200 | CCSc1ncccc1-c1cc(F)c(C(C)CCCC(=O)O)c(F)c1 (stereo not shown) [Example 42, 5-[4-(2-ethylsulfanyl-3-pyridyl)-2,6-difluoro-phenyl]hexanoic acid]
200 to 2000 | O=C(O)CC1CCN(c2c(F)cc(-c3csc(OCC4CC4)n3)cc2F)C1 (stereo not shown) [Example 583, {1-[4-(2-cyclopropylmethoxy-thiazol-4-yl)-2,6-difluoro-phenyl]-pyrrolidin-3-yl}-acetic acid]
< 200 | O=C(O)CC1CCN(c2c(F)cc(-c3nccc(Oc4cccc(F)c4)n3)cc2F)CC1 [Example 607, 2-[1-[4-[4-(3-fluorophenoxy)pyrimidin-2-yl]-2,6-difluoro-phenyl]-4-piperidyl]acetic acid]

Compound | EC50 [nM]
O=C(O)CCCOc1ccc(-c2cc(F)cc(OC3CCC3)c2)cc1F [Example 536, 4-(5′-cyclobutoxy-3,3′-difluoro-biphenyl-4-yloxy)-butyric acid] | < 200
O=C(O)CC1CN(c2c(F)cc(-c3cccc(OC4CCC4)n3)cc2F)C1 [Example 321, 2-[1-[4-[6-(cyclobutoxy)-2-pyridyl]-2,6-difluoro-phenyl]azetidin-3-yl]acetic acid] | < 200
CC(C)Oc1ncccc1-c1ccc(C(C)(C)CCCC(=O)O)cc1 [Example 158, 5-[4-(2-isopropoxy-pyridin-3-yl)-phenyl]-5-methyl-hexanoic acid] | 200 to 2000
COc1ccc(-c2cc(F)c(N3CCC(CC(=O)O)CC3)c(F)c2)cc1OC1CCC1 [Example 305, 2-[1-[4-[3-(cyclobutoxy)-4-methoxy-phenyl]-2,6-difluoro-phenyl]-4-piperidyl]acetic acid] | 200 to 2000
Cc1cc(OC2CCC2)nc(-c2cc(F)c(N3CCC(CC(=O)O)CC3)c(F)c2)n1 [Example 323, 2-[1-[4-[4-(cyclobutoxy)-6-methyl-pyrimidin-2-yl]-2,6-difluoro-phenyl]-4-piperidyl]acetic acid] | 200 to 2000
Cc1cc(OC2CCC2)nc(-c2cc(F)c(OCC3CC3C(=O)O)c(F)c2)c1 (stereo not shown) [Example 548, 2-[4-(6-cyclobutoxy-4-methyl-pyridin-2-yl)-2,6-difluoro-phenoxymethyl]-cyclopropanecarboxylic acid] | < 200
O=C(O)CCCC(F)(F)c1ccc(-c2cccnc2OC2CCC2)cc1 [Example 185, 5-[4-(2-cyclobutoxy-pyridin-3-yl)-phenyl]-5,5-difluoro-pentanoic acid] | < 200
Oc1cc(CSc2c(F)cc(-c3cccnc3OC3CCCC3)cc2F)on1 [Example 83, 5-[[4-[2-(cyclopentoxy)-3-pyridyl]-2,6-difluoro-phenyl]sulfanylmethyl]isoxazol-3-ol] | < 200
O=C(O)CCCOc1c(F)cc(-n2ccc3cc(OC4CCC4)ccc32)cc1F [Example 477, 4-[4-[5-(cyclobutoxy)indol-1-yl]-2,6-difluoro-phenoxy]butanoic acid] | 200 to 2000
O=C(O)CC1CCN(c2c(F)cc(-c3cc(F)cc(OC4CCC4)c3)cc2F)CC1 [Example 306, 2-[1-[4-[3-(cyclobutoxy)-5-fluoro-phenyl]-2,6-difluoro-phenyl]-4-piperidyl]acetic acid] | 200 to 2000
